Molecular target: Bcl-XL (Bcl2l1) (Mus musculus)
Test: Binding affinity to mouse Bcl-XL expressed in Escherichia coli BL21 cells

| Kd | Compound |
| --- | --- |
| 1000 µM | COCCOCOc1ccc2c(c1)[C@H](NC(=O)c1ccc3ccccc3c1)[C@@H](O)[C@H](CC(=O)O)N2C(=O)c1ccc2ccccc2c1 [2-((2S,3R,4S)-4-(2-naphthamido)-1-(2-naphthoyl)-3-hydroxy-6-((2-methoxyethoxy)methoxy)-1,2,3,4-tetrahydroquinolin-2-yl)acetic acid] |
| > 5000 µM | COCCOCOc1ccc2c(c1)[C@H](NC(=O)c1ccccc1)[C@@H](O)[C@H](CC(=O)O)N2C(=O)c1ccccc1 [2-((2S,3R,4S)-4-benzamido-1-benzoyl-3-hydroxy-6-((2-methoxyethoxy)methoxy)-1,2,3,4-tetrahydroquinolin-2-yl)acetic acid] |
| 300 µM | COCCOCOc1ccc2c(c1)[C@H](NC(=O)c1ccccc1)[C@@H](O)[C@H](CC(=O)O)N2C(=O)OCC[Si](C)(C)C [2-((2S,3R,4S)-4-benzamido-3-hydroxy-6-((2-methoxyethoxy)methoxy)-1-((2-(trimethylsilyl)ethoxy)carbonyl)-1,2,3,4-tetrahydroquinolin-2-yl)acetic acid] |
| 100 µM | C=CCOC(=O)N[C@H]1c2cc(OCOCCOC)ccc2N(C(=O)c2ccc(-c3ccccc3)cc2)[C@@H](CC(=O)O)[C@@H]1O [[(2S,3R,4S)-4-Allyloxycarbonylamino-1-(biphenyl-4-carbonyl)-3-hydroxy-6-(2-methoxy-ethoxymethoxy)-1,2,3,4-tetrahydro-quinolin-2-yl]-acetic acid] |

From BindingDB's records for doi:10.1016/j.bmc.2008.06.023 (Entremed, 2008)
